# What was measured:
# PC3 or PC3M cells = experiment: Scratch wound healing assay with siRNA knockdown; format: cell-based, human
# Method: (§1) HEK293T cells were transfected with 1 of 420 different protein kinases, treated with 10 μM KBU2046 (N=5 replicates) or vehicle control (N=5) for three days, and LUMIER assays performed. The N=17 kinases that gave significant findings (Student's t-test <0.05) in the same direction in each of two separate experiments are depicted. Each separate treatment and kinase condition in each of two separate experiments was conducted in replicates of N=5. […] FIGS. 6c and 6d show the results of the wound healing assay. PC3 cells were transfected with siRNA targeting RAF1 (si-Raf1) or non-targeting siRNA (si-control), treated with KBU2046 or vehicle as above, and RAF1 protein measured by Western blot (c) and effects upon wound healing measured (d). […] Purified recombinant HSP90β, CDC37, and RAF1 were combined with KBU2046, as indicated, incubated in an in vitro kinase assay for the indicated times, and Western blot for RAF1-Ser^338 phosphorylation performed. FIGS. 6f and 6g show the effect on HSP90β/CDC37 heterocomplex formation and function in vitro. Purified recombinant HSP90β, CDC37, RAF1, SGK3 or MAP3K6 were combined and treated with KBU2046 or vehicle control, as indicated, incubated in an in vitro kinase assay for the indicated times, and Western blot performed, as denoted. Experiments were repeated at separate times at least once, with similar results.
# FIGS. 24b-d show the results of the wound healing assay. PC3 or PC3M cells were treated+/−KBU2046 and with siRNA to the denoted gene, or with non-targeting control siRNA (NT), and effects upon transcript (b) or protein expression (c) measured by qRT/PCR or Western blot, respectively. For qRT/PCR, values are expressed as the target gene/GAPDH ratio, normalized to that of NT/−KBU2046 cells. Under the same conditions, wound healing assays were performed (d).
# Scratch Wound Assays. Cells were transfected with the indicated si-RNA constructs per manufacture protocol (GE-Dharmacon), cultured 48 hrs with 10 μM KBU2046 or vehicle, and scratch wound assay performed as described (Xiao, X. et al., Oncotarget 6, 3225-39 (2015)). […]
# [1] = test system: human PCa PC3-M cell orthotopic implants; experiment: Murine orthotopic implantation model of human PCa (lung metastasis); format: in vivo, athymic mice; conditions: mice treated as in FIG. 2a
# Method: Cohorts of N=12 athymic mice bearing human PCa PC3-M cell orthotopic implants (a), or of N=5 non-tumor bearing athymic mice (b), were treated with KBU2046 incorporated into chow, and resultant lung metastasis (a) or plasma KBU2046 concentration (b) measured. Values are the mean±SEM. The relationship between dose and metastasis was evaluated by two-sided ANOVA (a). FIG. 2c a comprehensive characterization of KBU2046 pharmacokinetics. CD1 mice were dosed with 100 mg KBU2046/kg via oral gavage or intravenous injection (iv), and blood collected at the indicated time points (data from mice dosed at 25 mg/kg are in FIG. 12, and corroborate 100 mg/kg findings). […] The dotted horizontal line denotes a concentration of 24 nM, which was the concentration of KBU2046 measured in the blood of mice whose metastasis were suppressed by 92% (a-b). […]
# Prostate cancer: orthotopic implantation. Orthotopic implantation of human GFP-PC3-M PCa cells into 6-8 week male Balb/c athymic mice (Charles River Laboratories) and quantification of distant metastasis was performed as described (Pavese, J. et al., J Vis Exp, e50873 (2013)). […] Metastasis were scored in a blinded fashion. Specifically, animals were assigned an ID number, resultant histologic slides contained a separate pathological ID number, slides were scored in a random fashion, after which the two numbers were linked up.
# [2] = test system: 442 kinases, including 400 distinct parental kinases plus mutants; experiment: KINOMEscan assay (Ambit Biosciences); format: binding; conditions: tested at 10 μM
# Description: Kinase assay system #1. The KINOMEscan™ assay (Ambit Biosciences). This assay evaluates 442 kinases, including 400 distinct parental kinases plus mutants known to alter activity or responsiveness. It does so in the context of an assay that measures the ability of putative inhibitors to inhibit binding of bacterial purified kinase to immobilized phospho-acceptor protein substrate. This approach has been successfully to identify kinase interactions of several small molecule kinase inhibitors (Fabian, M. A. et al., Nat Biotechnol 23, 329-36 (2005); and Karaman, M. W. et al., Nat Biotechnol 26, 127-32 (2008)). KBU2046 was tested at 10 μM. […] There were two initial false positives (for a false positive rate of 0.4%), that were subsequently found to be negative in a dedicated follow up analysis. Specific and important negative findings include MKK4, p38 MAPK (α, β, γ and δ isoforms) and RAF1. Conclusions: there was no evidence that KBU2046 inhibits kinase function by competing for phospho-acceptor binding.
# [3] = biological target: T1, phosphorylation of HSP90β (Homo sapiens, UniProt P08238+Q16543); experiment: HSP90β/CDC37 heterocomplex in vitro kinase assay with SGK3 and MAP3K6; format: biochemical
# T1 construct: MAP3K6: Abnova SGK3: #PV3859; MAP3K6: #P5592; host or cells: E. coli for HSP90β and CDC37
# T1 sequence (P08238 2-724): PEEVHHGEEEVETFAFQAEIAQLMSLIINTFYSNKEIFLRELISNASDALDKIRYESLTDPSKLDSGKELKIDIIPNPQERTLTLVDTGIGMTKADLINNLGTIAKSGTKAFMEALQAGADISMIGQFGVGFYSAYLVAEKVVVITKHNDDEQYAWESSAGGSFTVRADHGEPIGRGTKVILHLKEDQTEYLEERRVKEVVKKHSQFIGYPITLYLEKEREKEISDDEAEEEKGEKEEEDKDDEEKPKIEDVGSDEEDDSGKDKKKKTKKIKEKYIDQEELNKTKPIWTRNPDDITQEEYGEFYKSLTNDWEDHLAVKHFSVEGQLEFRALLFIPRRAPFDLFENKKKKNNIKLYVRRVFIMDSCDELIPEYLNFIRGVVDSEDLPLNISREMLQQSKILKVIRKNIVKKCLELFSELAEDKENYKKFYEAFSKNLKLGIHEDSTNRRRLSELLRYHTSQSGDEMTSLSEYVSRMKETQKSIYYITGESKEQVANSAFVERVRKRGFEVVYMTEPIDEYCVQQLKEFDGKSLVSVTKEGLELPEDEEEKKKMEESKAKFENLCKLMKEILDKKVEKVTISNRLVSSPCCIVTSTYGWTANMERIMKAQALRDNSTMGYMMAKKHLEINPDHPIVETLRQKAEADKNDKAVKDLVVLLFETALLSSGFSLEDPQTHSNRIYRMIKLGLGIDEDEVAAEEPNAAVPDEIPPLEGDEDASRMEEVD
# T1 sequence (Q16543 whole entry): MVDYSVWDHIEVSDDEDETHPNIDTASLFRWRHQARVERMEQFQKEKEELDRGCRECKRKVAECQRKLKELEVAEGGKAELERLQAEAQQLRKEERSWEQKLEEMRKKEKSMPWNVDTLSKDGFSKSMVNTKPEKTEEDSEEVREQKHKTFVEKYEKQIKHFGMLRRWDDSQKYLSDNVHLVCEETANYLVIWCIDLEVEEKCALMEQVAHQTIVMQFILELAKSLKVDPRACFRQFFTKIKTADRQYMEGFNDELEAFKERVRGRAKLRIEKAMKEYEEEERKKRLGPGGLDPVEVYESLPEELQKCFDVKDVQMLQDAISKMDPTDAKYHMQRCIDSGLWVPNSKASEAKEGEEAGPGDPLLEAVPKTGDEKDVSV
# Method: as §1, with “results. […]” for “results.”
smiles,measurement,setting,value
"O=C1c2ccccc2OCC1c1ccc(F)cc1 (racemic) [KBU2046, (±)-3(4-fluorophenyl)chroman-4-one]",efficacy on motility,PC3 or PC3M cells; SGK3 knockdown,still retained efficacy
same,RAF1 protein expression levels,"PC3 or PC3M cells; Western blot, cells",did not alter RAF1 protein expression levels
same,efficacy on motility,PC3 or PC3M cells; knockdown of RAF1 or of RIPK1,mitigated KBU2046 efficacy
same,primary tumor growth (tumor weight),[1],does not inhibit primary tumor cell growth
same,inhibition of kinase binding to immobilized phospho-acceptor substrate,[2],completely negative
same,SGK3-mediated phosphorylation of HSP90β,[3]; MAP3K6 added,also decreases in the presence of KBU2046
same,SGK3-mediated phosphorylation of HSP90β,[3]; SGK3 present,phosphorylation was further increased
